Assay results from the supplement of paper PMC13386468.

What was measured:
Experiment in all cases: IC50 for competition of protein binding to Kinobeads
Details in all cases: assay detail: Kinobeads competition in P. falciparum blood-stage lysate
[1] = molecular target: UniProt O97231
[2] = molecular target: UniProt Q8IIU5
[3] = molecular target: UniProt Q8IJQ1
[4] = molecular target: UniProt Q8IBP8
[5] = molecular target: UniProt Q8ILY9
[6] = molecular target: UniProt Q8IJR9
[7] = molecular target: UniProt Q8I5L6
[8] = molecular target: UniProt Q8ILW6
[9] = molecular target: UniProt C6KTB4
[10] = molecular target: UniProt C0H517
[11] = molecular target: UniProt O97225
[12] = molecular target: UniProt Q8I2R0
[13] = molecular target: UniProt Q8IDX8
[14] = molecular target: UniProt O77323
[15] = molecular target: UniProt O77312
[16] = molecular target: UniProt Q8I546
[17] = molecular target: UniProt Q8I2W3
[18] = molecular target: UniProt Q8IDG2
[19] = molecular target: UniProt Q8I0V4
[20] = molecular target: UniProt Q8I487
[21] = molecular target: UniProt Q8I2W2
[22] = molecular target: UniProt Q8I3X4
[23] = molecular target: UniProt Q8I5H4
[24] = molecular target: UniProt Q8I6T2
[25] = molecular target: UniProt Q8I562
[26] = molecular target: UniProt Q8I0P6
[27] = molecular target: UniProt Q8IFM9
[28] = molecular target: UniProt C0H5C2
[29] = molecular target: UniProt Q9TY99
[30] = molecular target: UniProt Q8I2A1
[31] = molecular target: UniProt Q8IBZ9
[32] = molecular target: UniProt Q8I5K4
[33] = molecular target: UniProt O97285
[34] = molecular target: UniProt Q8IL56
[35] = molecular target: UniProt Q8IHT9
[36] = molecular target: UniProt Q8IDZ6
[37] = molecular target: UniProt Q8ILL5
[38] = molecular target: UniProt C6KSP9
[39] = molecular target: UniProt Q8IIW2
[40] = molecular target: UniProt C0H5J9
[41] = molecular target: UniProt Q8IM15
[42] = molecular target: UniProt Q8IAK9
[43] = molecular target: UniProt Q8IJP3
[44] = molecular target: UniProt Q8IJX3
[45] = molecular target: UniProt C6KSV0
[46] = molecular target: UniProt Q8IL08
[47] = molecular target: UniProt Q8ILP6
[48] = molecular target: UniProt O96258
[49] = molecular target: UniProt Q8I467
[50] = molecular target: UniProt Q8IAR3
[51] = molecular target: UniProt Q8I3V8

Measured: IC50
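Note: native unpurified kinases from lysate captured on beads bearing immobilized kinase inhibitors, with bead-bound kinases quantified by mass spectrometry across compound doses.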

Sequence of UniProt Q8IJR9 (Q8IJR9 whole entry): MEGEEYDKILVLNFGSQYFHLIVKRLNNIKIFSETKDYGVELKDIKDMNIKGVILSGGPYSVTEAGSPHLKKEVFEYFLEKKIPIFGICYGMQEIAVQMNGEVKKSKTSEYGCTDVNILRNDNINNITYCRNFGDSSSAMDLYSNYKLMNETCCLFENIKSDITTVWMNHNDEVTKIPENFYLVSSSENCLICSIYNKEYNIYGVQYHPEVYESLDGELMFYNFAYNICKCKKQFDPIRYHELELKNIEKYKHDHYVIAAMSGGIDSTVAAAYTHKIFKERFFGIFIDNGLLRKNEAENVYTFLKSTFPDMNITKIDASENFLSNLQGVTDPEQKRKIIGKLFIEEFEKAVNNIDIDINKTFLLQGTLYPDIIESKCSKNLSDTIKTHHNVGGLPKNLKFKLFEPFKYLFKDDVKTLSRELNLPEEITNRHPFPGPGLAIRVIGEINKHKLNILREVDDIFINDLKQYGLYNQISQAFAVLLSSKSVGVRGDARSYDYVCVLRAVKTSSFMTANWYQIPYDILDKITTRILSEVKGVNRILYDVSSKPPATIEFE
Sequence of UniProt Q8IBZ9 (Q8IBZ9 whole entry): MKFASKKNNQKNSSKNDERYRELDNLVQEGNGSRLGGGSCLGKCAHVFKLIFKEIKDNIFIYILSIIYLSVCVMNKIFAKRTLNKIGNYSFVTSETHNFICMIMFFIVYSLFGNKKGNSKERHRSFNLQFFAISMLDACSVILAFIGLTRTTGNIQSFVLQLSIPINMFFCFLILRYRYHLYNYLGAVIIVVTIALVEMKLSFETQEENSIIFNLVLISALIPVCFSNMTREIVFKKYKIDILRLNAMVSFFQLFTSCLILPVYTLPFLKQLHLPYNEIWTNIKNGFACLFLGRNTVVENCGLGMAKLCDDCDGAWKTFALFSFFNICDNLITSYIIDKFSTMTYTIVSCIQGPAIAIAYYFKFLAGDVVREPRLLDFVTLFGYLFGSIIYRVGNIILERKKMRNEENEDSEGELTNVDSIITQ
Sequence of UniProt Q8ILW6 (Q8ILW6 whole entry): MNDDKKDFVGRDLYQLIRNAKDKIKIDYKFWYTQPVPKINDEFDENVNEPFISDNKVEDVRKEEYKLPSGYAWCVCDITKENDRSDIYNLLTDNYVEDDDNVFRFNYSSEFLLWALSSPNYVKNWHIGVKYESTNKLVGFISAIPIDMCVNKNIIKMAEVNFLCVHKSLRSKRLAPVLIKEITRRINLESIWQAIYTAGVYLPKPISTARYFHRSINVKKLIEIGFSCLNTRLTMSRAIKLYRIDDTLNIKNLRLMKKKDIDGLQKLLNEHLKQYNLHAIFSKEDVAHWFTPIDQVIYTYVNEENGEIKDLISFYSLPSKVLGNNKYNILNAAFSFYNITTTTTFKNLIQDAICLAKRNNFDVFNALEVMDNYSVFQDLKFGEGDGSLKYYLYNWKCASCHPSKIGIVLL
Sequence of UniProt O97231 (O97231 whole entry): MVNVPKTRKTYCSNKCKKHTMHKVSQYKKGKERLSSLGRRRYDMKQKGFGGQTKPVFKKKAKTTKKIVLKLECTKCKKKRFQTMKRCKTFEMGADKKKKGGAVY
Sequence of UniProt Q8I3X4 (Q8I3X4 whole entry): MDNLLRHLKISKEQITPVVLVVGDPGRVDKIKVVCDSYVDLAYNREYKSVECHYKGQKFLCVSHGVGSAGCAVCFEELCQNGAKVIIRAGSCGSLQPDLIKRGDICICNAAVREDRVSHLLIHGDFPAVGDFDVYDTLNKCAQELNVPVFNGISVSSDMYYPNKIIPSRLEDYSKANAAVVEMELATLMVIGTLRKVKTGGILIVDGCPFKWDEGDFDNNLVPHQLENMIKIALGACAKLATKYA
Sequence of UniProt Q8IM15 (Q8IM15 whole entry): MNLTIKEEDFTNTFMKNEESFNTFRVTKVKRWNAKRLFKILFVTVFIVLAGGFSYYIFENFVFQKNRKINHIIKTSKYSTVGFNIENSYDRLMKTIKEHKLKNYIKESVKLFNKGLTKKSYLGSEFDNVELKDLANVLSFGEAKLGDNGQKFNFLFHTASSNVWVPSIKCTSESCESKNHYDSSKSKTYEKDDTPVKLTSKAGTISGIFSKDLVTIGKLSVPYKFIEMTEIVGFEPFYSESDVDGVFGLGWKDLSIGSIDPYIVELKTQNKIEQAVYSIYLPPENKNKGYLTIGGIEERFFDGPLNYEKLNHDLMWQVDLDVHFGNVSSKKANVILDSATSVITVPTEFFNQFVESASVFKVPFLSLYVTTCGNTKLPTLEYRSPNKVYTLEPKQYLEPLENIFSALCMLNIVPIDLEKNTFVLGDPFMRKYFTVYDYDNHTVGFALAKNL
Sequence of UniProt Q8I467 (Q8I467 whole entry): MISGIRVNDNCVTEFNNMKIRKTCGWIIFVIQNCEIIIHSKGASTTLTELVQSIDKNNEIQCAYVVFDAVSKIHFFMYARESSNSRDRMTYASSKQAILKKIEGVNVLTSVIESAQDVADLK
Sequence of UniProt O77323 (O77323 whole entry): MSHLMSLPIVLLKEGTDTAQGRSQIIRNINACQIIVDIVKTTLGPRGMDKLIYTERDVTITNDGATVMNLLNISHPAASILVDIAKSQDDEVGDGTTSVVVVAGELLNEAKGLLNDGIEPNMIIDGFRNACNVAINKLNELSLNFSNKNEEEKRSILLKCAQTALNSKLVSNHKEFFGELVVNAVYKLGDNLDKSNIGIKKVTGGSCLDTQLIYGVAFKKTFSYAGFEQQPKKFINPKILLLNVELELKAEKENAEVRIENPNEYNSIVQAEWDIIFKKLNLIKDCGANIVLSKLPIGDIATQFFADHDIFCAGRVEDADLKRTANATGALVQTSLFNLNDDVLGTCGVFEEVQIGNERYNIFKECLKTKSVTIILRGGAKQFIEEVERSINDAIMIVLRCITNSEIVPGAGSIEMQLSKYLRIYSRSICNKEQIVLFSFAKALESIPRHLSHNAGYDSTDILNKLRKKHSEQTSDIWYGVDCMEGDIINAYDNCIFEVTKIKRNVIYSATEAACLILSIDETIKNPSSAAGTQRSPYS

O=c1[nH]c2ccc(Cl)cc2c(NC2CN3CCC2CC3)c1-c1nc2ccccc2[nH]1 (stereo unspecified) [CHIR-124]
> 20 µM: all assays above
